Measured values published in PMC10527387, “The Potential Mechanisms behind Loperamide-Induced Cardiac Arrhythmias Associated with Human Abuse and Extreme Overdose” (Biomolecules, 2023).

Experiments:
Cav1.2 (ICa, ICaL) = target: T1, Cav1.2 (ICa, ICaL) (Homo sapiens, UniProt Q13936); assay: cell-based
T1 construct: gene CACNA1C

Nav1.5 (INa) = target: T2, Nav1.5 (INa) (Homo sapiens, UniProt Q14524); assay: cell-based
T2 construct: gene SCN5A
T2 sequence (Q14524 whole entry): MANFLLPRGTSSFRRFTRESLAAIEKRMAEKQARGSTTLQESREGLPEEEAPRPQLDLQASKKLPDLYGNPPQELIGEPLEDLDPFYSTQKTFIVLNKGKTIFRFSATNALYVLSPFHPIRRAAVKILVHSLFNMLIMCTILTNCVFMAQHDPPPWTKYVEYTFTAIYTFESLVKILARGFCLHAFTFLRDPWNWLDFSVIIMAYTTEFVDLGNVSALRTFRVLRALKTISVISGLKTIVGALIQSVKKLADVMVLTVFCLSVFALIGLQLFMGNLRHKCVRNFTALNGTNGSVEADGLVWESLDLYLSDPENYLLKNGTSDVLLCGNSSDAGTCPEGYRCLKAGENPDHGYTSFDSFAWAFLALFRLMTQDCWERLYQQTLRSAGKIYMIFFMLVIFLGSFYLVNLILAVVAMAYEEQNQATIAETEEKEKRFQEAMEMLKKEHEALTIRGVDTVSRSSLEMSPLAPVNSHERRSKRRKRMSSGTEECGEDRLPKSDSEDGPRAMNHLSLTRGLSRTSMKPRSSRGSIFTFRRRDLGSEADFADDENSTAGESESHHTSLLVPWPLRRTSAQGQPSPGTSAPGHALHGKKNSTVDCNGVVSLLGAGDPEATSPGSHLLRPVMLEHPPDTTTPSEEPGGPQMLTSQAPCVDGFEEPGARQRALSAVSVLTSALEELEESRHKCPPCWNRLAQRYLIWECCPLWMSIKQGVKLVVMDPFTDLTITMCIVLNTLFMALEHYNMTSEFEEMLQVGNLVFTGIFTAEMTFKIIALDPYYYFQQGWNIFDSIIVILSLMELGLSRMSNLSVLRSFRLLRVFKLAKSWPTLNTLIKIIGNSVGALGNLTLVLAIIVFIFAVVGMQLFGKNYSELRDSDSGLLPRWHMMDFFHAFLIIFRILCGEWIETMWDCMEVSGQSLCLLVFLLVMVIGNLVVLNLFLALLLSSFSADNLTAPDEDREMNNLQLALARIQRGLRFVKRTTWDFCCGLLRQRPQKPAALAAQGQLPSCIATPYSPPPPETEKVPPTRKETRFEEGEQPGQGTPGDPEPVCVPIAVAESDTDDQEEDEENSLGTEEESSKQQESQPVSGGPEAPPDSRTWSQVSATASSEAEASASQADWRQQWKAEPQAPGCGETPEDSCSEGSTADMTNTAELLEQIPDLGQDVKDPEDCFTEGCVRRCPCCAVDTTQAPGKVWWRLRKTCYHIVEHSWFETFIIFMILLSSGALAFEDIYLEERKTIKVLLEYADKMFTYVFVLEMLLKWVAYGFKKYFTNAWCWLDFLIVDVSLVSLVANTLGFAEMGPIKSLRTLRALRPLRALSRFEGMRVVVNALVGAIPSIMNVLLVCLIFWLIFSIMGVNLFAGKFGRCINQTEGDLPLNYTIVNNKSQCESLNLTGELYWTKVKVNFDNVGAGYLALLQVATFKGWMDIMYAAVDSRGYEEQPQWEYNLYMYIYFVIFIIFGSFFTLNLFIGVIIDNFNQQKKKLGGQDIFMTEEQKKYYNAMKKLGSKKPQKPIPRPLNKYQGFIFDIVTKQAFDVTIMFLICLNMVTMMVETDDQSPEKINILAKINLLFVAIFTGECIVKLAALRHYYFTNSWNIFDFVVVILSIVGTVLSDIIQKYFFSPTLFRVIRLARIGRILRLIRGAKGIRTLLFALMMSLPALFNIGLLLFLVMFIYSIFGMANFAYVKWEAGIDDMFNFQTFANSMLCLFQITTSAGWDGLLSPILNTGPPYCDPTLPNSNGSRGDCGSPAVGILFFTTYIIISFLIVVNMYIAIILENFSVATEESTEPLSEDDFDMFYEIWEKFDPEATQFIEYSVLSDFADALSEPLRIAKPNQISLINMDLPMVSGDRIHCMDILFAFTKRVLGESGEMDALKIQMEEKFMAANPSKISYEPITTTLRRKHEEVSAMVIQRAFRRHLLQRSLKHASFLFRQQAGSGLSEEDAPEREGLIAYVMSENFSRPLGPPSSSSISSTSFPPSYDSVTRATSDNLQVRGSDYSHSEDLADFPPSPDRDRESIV

T1 sequence (Q13936 whole entry): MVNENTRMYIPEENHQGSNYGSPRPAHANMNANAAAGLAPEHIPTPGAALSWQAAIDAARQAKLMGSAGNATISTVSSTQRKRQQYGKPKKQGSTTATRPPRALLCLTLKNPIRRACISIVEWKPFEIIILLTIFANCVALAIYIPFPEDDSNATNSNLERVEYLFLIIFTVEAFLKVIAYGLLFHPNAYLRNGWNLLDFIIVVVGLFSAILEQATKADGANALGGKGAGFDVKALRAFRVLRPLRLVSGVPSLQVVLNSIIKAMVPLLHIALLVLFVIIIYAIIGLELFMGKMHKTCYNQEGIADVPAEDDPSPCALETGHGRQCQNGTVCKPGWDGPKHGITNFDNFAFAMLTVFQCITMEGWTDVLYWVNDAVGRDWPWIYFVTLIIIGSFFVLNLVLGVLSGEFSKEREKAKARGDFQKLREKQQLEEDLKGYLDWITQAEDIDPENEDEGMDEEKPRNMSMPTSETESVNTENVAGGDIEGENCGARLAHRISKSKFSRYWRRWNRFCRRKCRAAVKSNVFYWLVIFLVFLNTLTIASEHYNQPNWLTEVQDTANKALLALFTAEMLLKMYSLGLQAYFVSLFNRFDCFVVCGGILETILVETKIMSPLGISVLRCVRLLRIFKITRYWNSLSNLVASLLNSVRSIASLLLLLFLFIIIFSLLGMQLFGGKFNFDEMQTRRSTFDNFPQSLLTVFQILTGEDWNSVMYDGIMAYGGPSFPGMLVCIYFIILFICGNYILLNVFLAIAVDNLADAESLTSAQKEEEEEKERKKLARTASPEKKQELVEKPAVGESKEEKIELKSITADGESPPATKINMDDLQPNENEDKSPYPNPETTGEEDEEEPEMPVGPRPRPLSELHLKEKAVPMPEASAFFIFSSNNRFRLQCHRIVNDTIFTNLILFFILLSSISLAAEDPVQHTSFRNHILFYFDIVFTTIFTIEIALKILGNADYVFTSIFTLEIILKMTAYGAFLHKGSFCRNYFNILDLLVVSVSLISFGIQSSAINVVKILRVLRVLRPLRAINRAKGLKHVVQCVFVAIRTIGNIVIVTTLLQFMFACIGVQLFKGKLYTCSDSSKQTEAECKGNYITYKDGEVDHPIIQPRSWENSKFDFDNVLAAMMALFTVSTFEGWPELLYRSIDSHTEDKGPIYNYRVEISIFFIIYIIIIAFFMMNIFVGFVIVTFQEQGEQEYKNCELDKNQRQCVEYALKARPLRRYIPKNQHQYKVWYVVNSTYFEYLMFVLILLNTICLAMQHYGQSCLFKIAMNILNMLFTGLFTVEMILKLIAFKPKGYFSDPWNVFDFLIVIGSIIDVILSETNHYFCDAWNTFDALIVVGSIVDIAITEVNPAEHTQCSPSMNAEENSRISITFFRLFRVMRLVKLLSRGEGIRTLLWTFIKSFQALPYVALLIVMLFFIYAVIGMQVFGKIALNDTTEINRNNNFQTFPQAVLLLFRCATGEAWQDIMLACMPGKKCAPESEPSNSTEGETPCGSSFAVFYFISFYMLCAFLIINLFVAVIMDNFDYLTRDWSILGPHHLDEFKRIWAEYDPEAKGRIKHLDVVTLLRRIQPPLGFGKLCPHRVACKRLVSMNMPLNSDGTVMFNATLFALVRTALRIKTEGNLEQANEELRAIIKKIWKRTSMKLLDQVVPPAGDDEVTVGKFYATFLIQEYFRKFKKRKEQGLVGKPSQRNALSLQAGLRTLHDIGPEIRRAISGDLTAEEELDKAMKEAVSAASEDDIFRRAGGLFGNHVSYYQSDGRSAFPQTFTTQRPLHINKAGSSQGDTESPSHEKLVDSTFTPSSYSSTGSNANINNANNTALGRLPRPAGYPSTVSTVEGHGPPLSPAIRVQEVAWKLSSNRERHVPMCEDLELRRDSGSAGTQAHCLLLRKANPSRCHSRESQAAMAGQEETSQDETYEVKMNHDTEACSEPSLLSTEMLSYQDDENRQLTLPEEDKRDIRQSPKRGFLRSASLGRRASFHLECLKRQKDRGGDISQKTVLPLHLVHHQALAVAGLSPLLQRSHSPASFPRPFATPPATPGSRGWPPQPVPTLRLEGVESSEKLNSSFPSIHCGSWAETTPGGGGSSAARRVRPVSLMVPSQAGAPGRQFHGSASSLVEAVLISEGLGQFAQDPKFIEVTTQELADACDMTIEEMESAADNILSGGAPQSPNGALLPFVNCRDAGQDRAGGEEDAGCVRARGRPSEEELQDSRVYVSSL

CN(C)C(=O)C(CCN1CCC(O)(c2ccc(Cl)cc2)CC1)(c1ccccc1)c1ccccc1 [Loperamide]
IC50 (Cav1.2 (ICa, ICaL)): 4.09 µM
IC50 (Nav1.5 (INa)): 0.526 µM
